{
  "source": "patent US20100086519A1",
  "about": "“Treatment of Hepatitis C Infection With Metalloporphyrins” (The Charlotte-Mecklenburg Hospital Authority d/b/a …, priority 2008, published 2010)",
  "key": {"[1]": {"molecular_target": "T1, HCV NS5A protein (Hepatitis C virus genotype 1b, UniProt Q9WMX2)", "T1 sequence (Q9WMX2 1973-2419)": "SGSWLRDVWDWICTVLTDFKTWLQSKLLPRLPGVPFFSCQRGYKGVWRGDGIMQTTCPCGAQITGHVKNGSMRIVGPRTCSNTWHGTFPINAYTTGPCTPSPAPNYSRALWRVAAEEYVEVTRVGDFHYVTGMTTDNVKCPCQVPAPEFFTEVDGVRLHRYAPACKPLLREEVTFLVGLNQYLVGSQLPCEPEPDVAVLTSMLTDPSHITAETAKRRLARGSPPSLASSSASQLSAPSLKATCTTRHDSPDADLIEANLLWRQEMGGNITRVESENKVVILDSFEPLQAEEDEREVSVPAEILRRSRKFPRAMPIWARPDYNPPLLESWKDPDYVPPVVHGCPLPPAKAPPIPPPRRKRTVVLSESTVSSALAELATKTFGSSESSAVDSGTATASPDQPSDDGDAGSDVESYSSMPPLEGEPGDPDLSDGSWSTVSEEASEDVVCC", "assay": "NS5A protein levels by Western blot in 9-13 cells", "format": "cell-based", "set-up": "processed into structural (C, E1, E2) and nonstructural (NS2, NS3, NS4A, NS4B, NS5A and NS5B) proteins; expressed in transfected cells; host or cells: 9-13 cells (human hepatoma cells with a replicating HCV NS3-NS5B region)", "conditions": "9-13 cells; for NS5A protein levels, proteasome inhibitor alone: absence of ZnMP, FIG. 5C; for effect on degradation of NS5A by ZnMP 5 μM: epoxomicin 5, 10 μM or MG132 10, 20 μM 30 min before ZnMP 5 μM; for effect on degradation of NS5A by ZnMP 5 μM / effect on degradation of NS5A by ZnMP 10 μM / NS5A protein levels: 4 hours; for effect on degradation of NS5A by ZnMP 10 μM: epoxomicin 5, 10 μM or MG132 10, 20 μM 30 min before ZnMP 10 μM; for NS5A protein levels: 10 μM, FIG. 2A", "description": "Bartenschlager (University of Heidelberg, Heidelberg, Germany).\nBiochim Biophys Acta 2008; 1779:195-203."}, "[2]": {"tested_on": "HCV", "assay": "anti-viral activity (summary statement)", "format": "cell-based, hepatitis C virus"}, "[3]": {"molecular_target": "T1, HCV NS5A protein", "assay": "polyubiquitination of NS5A by immunoprecipitation and immunoblot in 9-13 cells", "format": "cell-based", "set-up": "processed into structural (C, E1, E2) and nonstructural (NS2, NS3, NS4A, NS4B, NS5A and NS5B) proteins; expressed in transfected cells; host or cells: 9-13 cells (human hepatoma cells with a replicating HCV NS3-NS5B region)", "protocol": "Immunoprecipitation was carried out according to the Manufacturer's protocol. Briefly, cells were harvested in cold radioimmunoprecipitation assay (RIPA) buffer (50 mM Tris-HC1 [pH 7.4], 150 mM NaCl, 1 mM EDTA, 0.25% sodium deoxycholate, 1% IGEPAL CA-630, 1 mM PMSF, 1 mM NaF, 1 mM Na3VO4 and 1 μg/ml each of aprotinin, leupeptin, and pepstatin). The samples were pre-cleared with Protein A/G Agarose for 10 min at 4° C. and subsequently incubated while gently rotating at 4° C. overnight with primary antibody, followed by Protein A/G beads for 1 h at 4° C. Beads were spun down and washed twice with RIPA buffer. Protein samples were separated by electrophoresis on 4-15% SDS-PAGE gels, and transferred to PVDF membrane, conjugated ubiquitin was detected as described for Western blot analysis using anti-ubiquitin antibody.\nThis Example investigates whether ZnMP induces polyubquitination of NS5A to gain insight into the mechanism by which ZnMP mediates degradation of NS5A protein. 9-13 cells were treated without or with 10 μM ZnMP for 4 h. Total proteins were extracted for subsequent Western blot or immunoprecipitation analysis. Immunoprecipitation was carried out using anti-HCV NS5A antibody. Ubiquitin conjugation of NS5A [polyubiquitinated NS5A (Ub)n-NS5A]was examined with immunoprecipitation using an anti-HCV NS5A antibody and immunoblot using an anti-ubiquitin antibody. […] In FIG. 6B, ubiquitination of NS5A following ZnMP treatment, or vehicle (DMSO) only was compared. The positions of molecular mass markers (in kilodaltons) are indicated to the left of the gel. The bracket indicates polyubiquitinated NS5A. Asterisks indicate cross-reacting immunoglobulin heavy chain. […] These bands may represent polyubiquitinated NS5A."}, "[4]": {"tested_on": "9-13 cells", "assay": "growth of cells exposed to proteasome inhibitor", "format": "cell-based, human", "conditions": "20 μM"}, "[5]": {"tested_on": "HO-1 gene", "conditions": "NIH 3T3 cells; cited from earlier work"}, "[6]": {"molecular_target": "T2, Bach1 (Mus musculus, UniProt P97302)", "T2 construct": "host or cells: NIH 3T3 cells", "T2 sequence (P97302 1-739)": "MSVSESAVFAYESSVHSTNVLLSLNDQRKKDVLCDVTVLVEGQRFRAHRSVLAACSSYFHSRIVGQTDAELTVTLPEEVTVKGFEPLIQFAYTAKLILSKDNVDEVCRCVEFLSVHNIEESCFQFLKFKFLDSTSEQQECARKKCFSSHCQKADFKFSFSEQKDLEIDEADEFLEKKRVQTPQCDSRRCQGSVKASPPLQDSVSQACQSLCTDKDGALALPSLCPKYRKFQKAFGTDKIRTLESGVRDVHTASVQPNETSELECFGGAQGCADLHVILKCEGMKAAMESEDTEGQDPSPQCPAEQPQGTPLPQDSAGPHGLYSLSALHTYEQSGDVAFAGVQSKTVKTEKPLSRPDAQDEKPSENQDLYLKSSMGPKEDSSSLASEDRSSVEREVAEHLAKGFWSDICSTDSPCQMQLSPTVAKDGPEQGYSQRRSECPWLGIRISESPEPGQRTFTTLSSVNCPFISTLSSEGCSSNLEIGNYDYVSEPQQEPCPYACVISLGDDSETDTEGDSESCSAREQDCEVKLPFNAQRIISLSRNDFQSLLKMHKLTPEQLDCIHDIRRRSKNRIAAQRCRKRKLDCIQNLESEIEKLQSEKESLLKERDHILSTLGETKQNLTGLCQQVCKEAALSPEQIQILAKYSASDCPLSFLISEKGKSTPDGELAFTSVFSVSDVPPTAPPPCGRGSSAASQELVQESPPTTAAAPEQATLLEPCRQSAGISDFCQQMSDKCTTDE", "conditions": "NIH 3T3 cells; cited from earlier work"}},
  "note": "Where a SMILES comes first, the peptide text is derived from it. The star is where a group is joined. Cbz = O=C(OCc1ccccc1)*",
  "data": [
    {"compound": "CC(C)C[C@@H](C=O)NC(=O)[C@H](CC(C)C)NC(=O)[C@H](CC(C)C)NC(=O)OCc1ccccc1", "note": "[MG132] (Cbz-Leu-Leu-Leu-aldehyde)", "values": [
      {"measurement": "NS5A protein levels, proteasome inhibitor alone", "setting": "[1]", "value": "did not affect"},
      {"measurement": "effect on degradation of NS5A by ZnMP 5 μM", "setting": "[1]", "value": "completely abrogated"},
      {"measurement": "effect on degradation of NS5A by ZnMP 10 μM", "setting": "[1]", "value": "significant reversal"}
    ]},
    {"compound": "c1ccc(CN(CCN(Cc2ccccn2)Cc2ccccn2)Cc2ccccn2)nc1", "note": "[TEPN, N, N, N, N-tetrakis-(2-pyridylmethyl) ethylenediamine]", "values": [
      {"measurement": "effect on ZnMP-mediated down-regulation of NS5A protein levels", "setting": "[1]; chelator 30 min before ZnMP, then 4 h, FIG. 3", "value": "did not affect"}
    ]},
    {"compound": "[Cl-].[Cl-].[Zn+2]", "note": "[ZnCl2, zinc chloride]", "values": [
      {"measurement": "NS5A protein levels", "setting": "[1]", "value": "not affected"}
    ]},
    {"compound": "C=CC1=C(C)c2cc3[n-]c(cc4nc(cc5[n-]c(cc1n2)c(C)c5C=C)C(C)=C4CCC(=O)O)c(CCC(=O)O)c3C.[Zn+2]", "note": "[ZnPP, Zinc protoporphyrin]", "values": [
      {"measurement": "anti-viral activity (summary statement)", "setting": "[2]", "value": "display anti-viral activity"},
      {"measurement": "polyubquitination of NS5A (summary statement)", "setting": "[3]", "value": "induce polyubquitination"}
    ]},
    {"compound": "CC[C@H](C)[C@H](NC(=O)[C@H]([C@@H](C)CC)N(C)C(C)=O)C(=O)N[C@H](C(=O)N[C@@H](CC(C)C)C(=O)[C@@]1(C)CO1)[C@@H](C)O", "note": "[epoxomicin]", "values": [
      {"measurement": "toxicity to the cells (cell growth)", "setting": "[4]", "value": "toxic"},
      {"measurement": "NS5A protein levels, proteasome inhibitor alone", "setting": "[1]", "value": "did not affect"},
      {"measurement": "effect on degradation of NS5A by ZnMP 5 μM", "setting": "[1]", "value": "completely abrogated"},
      {"measurement": "effect on degradation of NS5A by ZnMP 10 μM", "setting": "[1]", "value": "significant reversal"}
    ]},
    {"compound": "Tin mesoporphyrin [SnMP]", "values": [
      {"measurement": "HO-1 gene expression", "setting": "[5]", "value": "induce"},
      {"measurement": "Bach1 protein levels", "setting": "[6]", "value": "down-regulate"},
      {"measurement": "NS5A protein levels, time course", "setting": "[1]; 10 μM, 0, 2, 4, 6 h, FIG. 2B", "value": "no detectable effects"}
    ]},
    {"compound": "mesoporphyrin", "values": [
      {"measurement": "NS5A protein levels", "setting": "[1]", "value": "not affected"}
    ]}
  ]
}
